Data: patent publication US9834514B2, “Antibiotic sensitivity-restoring and photosensitive agents” (New Mexico Tech Research Foundation, priority 2015, dated 2017)
pIC50: −log10 of the molar value. Values after ≈ are worked out from the molar mass of the structure shown. Like-named read-outs stand apart in the source and are kept apart here.

Experiments:
[1] = tested on: VRE; assay: MIC against VRE; type: cell-based, Enterococcus faecalis; conditions: Enterococcus, TABLE 23, read-out: VRE MIC
Procedure: In a 12×75 mm borosilicate glass culture tube, 1 mL of cell suspension was added. Then, compound 7 was added to the cells, and the samples were mixed using a vortex mixer. […] The samples were incubated overnight at 37° C. on a rotary shaking incubator at 100 rpm.

[2] = tested on: MRSA; assay: Resensitization to antibiotics (log reduction, TABLE 29); type: cell-based, S. aureus; conditions: compound 1 μM; Oxacillin (100 μg/mL)
Procedure: In a 96-well microtiter plate, two-fold dilutions were made of each drug (starting with 100 μM) in 100 μL of a cell suspension in TSB. The resulting samples were incubated overnight at 37° C. on a rotary shaking incubator at 100 rpm. The samples were then visually inspected for turbidity. A 20% well volume of MTT reagent (5 mg/mL) was subsequently added, and the samples were incubated for about 20 minutes.

[3] = tested on: MRSA isolates (S. aureus ATCC 33591, BAA-44, BAA-1707, BAA-1717, BAA-1720, BAA-1747, BAA-1754, BAA-1761, BAA-1763, BAA-1764, BAA-1766); assay: Combination effects of compounds 7-11 and antibiotics on MRSA isolates (turbidity); type: cell-based
From the text: Inhibition resulting from co-treatment of a broth suspension with a compound of the invention and an antibiotic was compared to broth suspensions subjected to each individual treatment. A visual observation of inhibition with the unaided eye upon co-treatment of the broth suspensions, based on turbidity, was considered synergistic.
Exceptions to reading complete inhibition of growth included Gram-positive cocci. For Gram-positive cocci, trailing growth was observed. For these species, the MICs were read at the first spot where trailing was observed, and tiny buttons of growth were ignored. […]
Two-fold dilutions of the antibiotics were prepared in a liquid growth medium dispensed in test tubes. […] The antibiotic-containing tubes were inoculated with a standard bacterial suspension of 5×10^5 CFU/mL. Following an overnight incubation (16-20 hrs) at 35±2° C. under ambient air, the tubes were examined for visible bacterial growth based on turbidity. The lowest concentration of antibiotic that prevented growth was determined to be the MIC. An incubation time of 24 hrs was used to determine the MICs of oxacillin and vancomycin.

[4] = tested on: MRSA; assay: Resensitization to antibiotics (log reduction, TABLE 29); type: cell-based, S. aureus; conditions: compound 1 μM; Norfloxacin (15 μg/mL)
[5] = tested on: Klebsiella pneumoniae (CRE, ATCC BAA-1705); assay: Time-dependent colony counts of CRE with compounds and PME; type: cell-based; conditions: PME 0.2 μg/mL, compound 20 μM; FIGS. 48, 49
Procedure: The MICs of PME and compounds 8-11 were determined against Klebsiella pneumoniae (CRE, ATCC BAA-1705). […] […] At specific time points, the samples were taken and diluted ten-fold in media. Ten microliters of each dilution was then drip-streaked onto an agar plate and incubated overnight at 37° C. Colony counts were then performed and the CFU/mL were calculated.

[6] = tested on: HeLa cells; assay: Toxicity (IC50) on HeLa cells; type: cell-based, human
Procedure: The toxicities of the compounds of the invention were determined for human cancerous cervical epithelium HeLa and normal lung fibroblast WI38 cells. The toxicities of EPIs INF-55 and INF-55Cl were quantified as controls. […] TABLE 2 compares the toxicity of compounds 7-11 on HeLa cells and normal WI38 cells.

[7] = MIC against MRSA isolates; type: cell-based, S. aureus; conditions: Staphylococcus aureus
In short: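 Broth microdilution in TSB, ~5×10^5 CFU/mL, two-fold dilutions from 100 μM, overnight at 37 °C shaking 100 rpm.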

Q: Which MIC [1] does the source give for `Clc1ccc(Oc2c(-c3ccc(Cl)cc3)[nH]c3ccccc23)cc1` [Compound 10] here?
A: The MIC was 10 to 20 µM (≈ 3.54 to 7.08 µg/mL).

Q: What about the “Log Reduction” value [2] of the same compound?
A: The value was 4-5.

Q: And the “combination effect with Gentamycin” value ([3]; MRSA ATCC 33591)?
A: The value was “No Synergy”.

Q: And the “combination effect with Norfloxacin” value ([3]; MRSA ATCC 33591)?
A: The value was “No Synergy”.

Q: And the “combination effect with Oxacillin” value ([3]; MRSA ATCC 33591)?
A: The value was “No Synergy”.

Q: What about the “combination effect with Tetracycline” value ([3]; MRSA ATCC 33591) of the same compound?
A: Its value is “No Synergy”.

Q: And the “combination effect with Vancomycin” value ([3]; MRSA ATCC 33591)?
A: The value was “Susceptible”.

Q: And the “combination effect with Norfloxacin” value ([3]; MRSA ATCC BAA-44)?
A: The value was “No Synergy”.

Q: What about the “combination effect with Oxacillin” value ([3]; MRSA ATCC BAA-44) of the same compound?
A: The value was “No Synergy”.

Q: What about the “combination effect with Tetracycline” value ([3]; MRSA ATCC BAA-44) of the same compound?
A: The value was “Susceptible”.

Q: And the “combination effect with Vancomycin” value ([3]; MRSA ATCC BAA-44)?
A: The value was “Susceptible”.

Q: What about the “combination effect with Gentamycin” value ([3]; MRSA ATCC BAA-1707) of the same compound?
A: The value was “Susceptible”.

Q: What about the “combination effect with Norfloxacin” value ([3]; MRSA ATCC BAA-1707) of the same compound?
A: Its value is “Susceptible”.

Q: And the “combination effect with Oxacillin” value ([3]; MRSA ATCC BAA-1707)?
A: Its value is “Susceptible”.

Q: And the “combination effect with Tetracycline” value ([3]; MRSA ATCC BAA-1707)?
A: Its value is “Synergy”.

Q: What about the “combination effect with Vancomycin” value ([3]; MRSA ATCC BAA-1707) of the same compound?
A: The value was “Susceptible”.

Q: And the “combination effect with Gentamycin” value ([3]; MRSA ATCC BAA-1717)?
A: The value was “Susceptible”.

Q: What about the “combination effect with Norfloxacin” value ([3]; MRSA ATCC BAA-1717) of the same compound?
A: The value was “Susceptible”.

Q: What about the “combination effect with Oxacillin” value ([3]; MRSA ATCC BAA-1717) of the same compound?
A: Its value is “Synergy”.

Q: And the “combination effect with Tetracycline” value ([3]; MRSA ATCC BAA-1717)?
A: Its value is “Susceptible”.

Q: What about the “combination effect with Vancomycin” value ([3]; MRSA ATCC BAA-1717) of the same compound?
A: Its value is “Susceptible”.

Q: And the “combination effect with Gentamycin” value ([3]; MRSA ATCC BAA-1720)?
A: Its value is “Susceptible”.

Q: What about the “combination effect with Norfloxacin” value ([3]; MRSA ATCC BAA-1720) of the same compound?
A: The value was “No Synergy”.

Q: What about the “combination effect with Oxacillin” value ([3]; MRSA ATCC BAA-1720) of the same compound?
A: The value was “No Synergy”.

Q: And the “combination effect with Tetracycline” value ([3]; MRSA ATCC BAA-1720)?
A: The value was “Susceptible”.

Q: What about the “combination effect with Vancomycin” value ([3]; MRSA ATCC BAA-1720) of the same compound?
A: The value was “Susceptible”.

Q: And the “combination effect with Gentamycin” value ([3]; MRSA ATCC BAA-1747)?
A: Its value is “Susceptible”.

Q: And the “combination effect with Norfloxacin” value ([3]; MRSA ATCC BAA-1747)?
A: The value was “Susceptible”.

Q: And the “combination effect with Oxacillin” value ([3]; MRSA ATCC BAA-1747)?
A: The value was “Susceptible”.

Q: What about the “combination effect with Tetracycline” value ([3]; MRSA ATCC BAA-1747) of the same compound?
A: The value was “Susceptible”.

Q: And the “combination effect with Vancomycin” value ([3]; MRSA ATCC BAA-1747)?
A: The value was “Susceptible”.

Q: And the “combination effect with Gentamycin” value ([3]; MRSA ATCC BAA-1754)?
A: The value was “Susceptible”.

Q: What about the “combination effect with Norfloxacin” value ([3]; MRSA ATCC BAA-1754) of the same compound?
A: The value was “Susceptible”.

Q: And the “combination effect with Oxacillin” value ([3]; MRSA ATCC BAA-1754)?
A: Its value is “No Synergy”.

Q: What about the “combination effect with Tetracycline” value ([3]; MRSA ATCC BAA-1754) of the same compound?
A: Its value is “Susceptible”.

Q: What about the “combination effect with Vancomycin” value ([3]; MRSA ATCC BAA-1754) of the same compound?
A: Its value is “Susceptible”.

Q: And the “combination effect with Gentamycin” value ([3]; MRSA ATCC BAA-1761)?
A: The value was “Susceptible”.

Q: What about the “combination effect with Norfloxacin” value ([3]; MRSA ATCC BAA-1761) of the same compound?
A: The value was “No Synergy”.

Q: What about the “combination effect with Oxacillin” value ([3]; MRSA ATCC BAA-1761) of the same compound?
A: The value was “Susceptible”.

Q: What about the “combination effect with Tetracycline” value ([3]; MRSA ATCC BAA-1761) of the same compound?
A: The value was “Susceptible”.

Q: What about the “combination effect with Vancomycin” value ([3]; MRSA ATCC BAA-1761) of the same compound?
A: Its value is “Susceptible”.

Q: And the “combination effect with Gentamycin” value ([3]; MRSA ATCC BAA-1763)?
A: Its value is “Susceptible”.

Q: What about the “combination effect with Norfloxacin” value ([3]; MRSA ATCC BAA-1763) of the same compound?
A: The value was “No Synergy”.

Q: And the “combination effect with Oxacillin” value ([3]; MRSA ATCC BAA-1763)?
A: Its value is “No Synergy”.

Q: And the “combination effect with Tetracycline” value ([3]; MRSA ATCC BAA-1763)?
A: The value was “Susceptible”.

Q: What about the “combination effect with Vancomycin” value ([3]; MRSA ATCC BAA-1763) of the same compound?
A: The value was “Susceptible”.

Q: And the “combination effect with Gentamycin” value ([3]; MRSA ATCC BAA-1764)?
A: Its value is “Susceptible”.

Q: What about the “combination effect with Norfloxacin” value ([3]; MRSA ATCC BAA-1764) of the same compound?
A: The value was “Susceptible”.

Q: What about the “combination effect with Oxacillin” value ([3]; MRSA ATCC BAA-1764) of the same compound?
A: The value was “No Synergy”.

Q: And the “combination effect with Tetracycline” value ([3]; MRSA ATCC BAA-1764)?
A: Its value is “Susceptible”.

Q: And the “combination effect with Vancomycin” value ([3]; MRSA ATCC BAA-1764)?
A: Its value is “Susceptible”.

Q: And the “combination effect with Gentamycin” value ([3]; MRSA ATCC BAA-1766)?
A: Its value is “Susceptible”.

Q: And the “combination effect with Norfloxacin” value ([3]; MRSA ATCC BAA-1766)?
A: Its value is “Susceptible”.

Q: What about the “combination effect with Oxacillin” value ([3]; MRSA ATCC BAA-1766) of the same compound?
A: Its value is “No Synergy”.

Q: What about the “combination effect with Tetracycline” value ([3]; MRSA ATCC BAA-1766) of the same compound?
A: The value was “Susceptible”.

Q: And the “combination effect with Vancomycin” value ([3]; MRSA ATCC BAA-1766)?
A: The value was “Susceptible”.

Q: What about the “Log Reduction” value [4] of the same compound?
A: Its value is 5-6.

Q: And the “CRE colony populations on simultaneous treatment with PME” value [5]?
A: The value was “reduced the CRE colony populations to sterility”.

Q: What about the pIC50 ([6]; Homo sapiens, cancerous cervical epithelium HeLa cells) of the same compound?
A: The pIC50 was 4.43.

Q: What about the “toxicity to HeLa versus normal WI38 cells” value ([6]; comparison of TABLE 2 values) of the same compound?
A: Its value is “killed cancerous HeLa cells at concentrations that were not toxic to normal WI38 cells”.

Q: What about the MIC ([7]; MRSA (ATCC BAA-44), TABLE 21, read-out: MRSA MIC) of the same compound?
A: The MIC was 16 µM (≈ 5.67 µg/mL).

Q: And the MIC ([7]; MRSA isolate ATCC 33591, read-out: MIC)?
A: Its MIC is 12.5 µM (≈ 4.43 µg/mL).

Q: What about the MIC ([7]; MRSA isolate ATCC BAA-44, read-out: MIC) of the same compound?
A: Its MIC is 8 µM (≈ 2.83 µg/mL).

Q: And the MIC ([7]; MRSA isolate ATCC BAA-1707, read-out: MIC)?
A: The MIC was 12.5 µM (≈ 4.43 µg/mL).

Q: What about the MIC ([7]; MRSA isolate ATCC BAA-1717, read-out: MIC) of the same compound?
A: The MIC was 6.3 µM (≈ 2.23 µg/mL).

Q: And the MIC ([7]; MRSA isolate ATCC BAA-1720, read-out: MIC)?
A: Its MIC is 6.3 µM (≈ 2.23 µg/mL).

Q: What about the MIC ([7]; MRSA isolate ATCC BAA-1747, read-out: MIC) of the same compound?
A: The MIC was 12.5 to 25 µM (≈ 4.43 to 8.86 µg/mL).

Q: And the MIC ([7]; MRSA isolate ATCC BAA-1754, read-out: MIC)?
A: Its MIC is 50 µM (≈ 17.7 µg/mL).

Q: And the MIC ([7]; MRSA isolate ATCC BAA-1761, read-out: MIC)?
A: The MIC was > 100 µM.

Q: What about the MIC ([7]; MRSA isolate ATCC BAA-1763, read-out: MIC) of the same compound?
A: The MIC was 50 to 100 µM (≈ 17.7 to 35.4 µg/mL).

Q: And the MIC ([7]; MRSA isolate ATCC BAA-1764, read-out: MIC)?
A: Its MIC is > 100 µM.

Q: What about the MIC ([7]; MRSA isolate ATCC BAA-1766, read-out: MIC) of the same compound?
A: The MIC was 25 to 50 µM (≈ 8.86 to 17.7 µg/mL).
